# Measurements as given in publication PMC10066365, “Nemacol is a small molecule inhibitor of C. elegans vesicular acetylcholine transporter with anthelmintic potential” (Nature Communications, 2023).
# Values joined by “and” are separate entries in the source; they are usually repeats but may differ in a detail not shown here. Equal values may be shown once. Read-outs that look alike come from different tables or passages of the source.
# How the values were obtained:
# [1] = system: Dirofilaria immitis microfilariae; test: Dirofilaria immitis microfilariae immobility assay (DiroImager, 72 h); details: for % effect (motility), DIROIM MF: Dirofilaria immitis microfilariae
# Outline: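 About 250 freshly purified microfilariae of the Missouri isolate per well in supplemented RPMI 1640, exposed to compound for 72 h. Motility scored by automated whole-plate optical imaging; medium with 1% DMSO as negative control.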
# [2] = target: T1, rat VAChT (Rattus norvegicus, UniProt Q62666); test: [3H]Vesamicol competitive radioligand binding, PC12 cells expressing ratVAChT
# T1 construct: expressed in transfected cells; host or cells: rat PC12 (PC12 A123.7) cells, stably transfected; shared by Dr. Ali Roghani (Texas Tech University)
# T1 sequence (Q62666 1-530): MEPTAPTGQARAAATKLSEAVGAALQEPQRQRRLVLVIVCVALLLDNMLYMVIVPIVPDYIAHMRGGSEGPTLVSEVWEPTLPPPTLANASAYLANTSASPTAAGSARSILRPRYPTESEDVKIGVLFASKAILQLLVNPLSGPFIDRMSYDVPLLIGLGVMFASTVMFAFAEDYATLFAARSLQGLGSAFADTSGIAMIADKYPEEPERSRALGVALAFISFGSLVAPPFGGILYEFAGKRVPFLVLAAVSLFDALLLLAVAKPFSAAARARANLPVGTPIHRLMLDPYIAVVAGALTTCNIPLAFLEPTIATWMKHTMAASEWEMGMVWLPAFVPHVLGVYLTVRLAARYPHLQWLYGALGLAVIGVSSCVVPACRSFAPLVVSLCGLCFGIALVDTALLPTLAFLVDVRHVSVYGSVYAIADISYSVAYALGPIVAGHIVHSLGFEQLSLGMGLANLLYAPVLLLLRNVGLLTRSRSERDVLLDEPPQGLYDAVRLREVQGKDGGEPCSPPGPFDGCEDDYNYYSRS
# [3] = system: C. elegans; test: C. elegans motor phenotype scoring on solid media (Punc/jerky-unc, coiled, paralyzed), wild-type young adults; type: in vivo, Caenorhabditis elegans; details: for atypical locomotion (number of animals) / coiled (number of animals) / no phene (number of animals) / paralyzed (number of animals) / any phene: mean % fraction of young adults exhibiting any phenotype (coiled, jerky-Unc or paralyzed) / any phene (mean % fraction of young adults exhibiting any phenotype: coiled, jerky-Unc or paralyzed): one hour; for atypical locomotion (number of animals) / coiled (number of animals) / no phene (number of animals) / paralyzed (number of animals): young adults, 20 animals per trial, single technical replicate; for any phene: mean % fraction of young adults exhibiting any phenotype (coiled, jerky-Unc or paralyzed) / any phene (mean % fraction of young adults exhibiting any phenotype: coiled, jerky-Unc or paralyzed): mean of three biological replicates; for EC50: Caenorhabditis elegans, any motor phenotype after 1 h on solid media, ± 95% CI, read-out: C. elegans - motor disruption EC50
# [4] = system: Dirofilaria immitis L3/L4; test: Dirofilaria immitis L3/L4 motility assay (DiroImager, 72 h); details: Dirofilaria immitis L4
# [5] = system: Pristionchus pacificus; test: Pristionchus pacificus motor disruption dose-response on solid media, 1 h; details: for mean % any phene: any phenotype (coiled, jerky-Unc or paralyzed) at one hour, mean of three biological replicates
# [6] = [3H]Vesamicol displacement, mean, read-out: ratVAChT Ki
# [7] = conc 3.75, count of 20 animals per trial, one hour
# [8] = conc 15, count of 20 animals per trial, one hour
# [9] = conc 60, count of 20 animals per trial, one hour
smiles,measurement,setting,value
FC(F)(F)c1cccc(N2CCN(CC3CCCC3)CC2)c1 [Nemacol-63],"% effect (motility), DIROIM MF",[1]; 0.016 µM,0%
same,"% effect (motility), DIROIM MF",[1]; 0.08 µM,0%
same,"% effect (motility), DIROIM MF",[1]; 0.4 µM,0%
same,"% effect (motility), DIROIM MF",[1]; 2 µM,0%
same,"% effect (motility), DIROIM MF",[1]; 10 µM,0%
same,"activity ratio, mammalian VAChT Ki to C. elegans in vivo EC50",[2],1.10
same,Ki,"[2]; [3H]Vesamicol binding, PC12, experiment 1, read-out: expt 1 Ki (M) vs. rat VAChT (PC12)",4.89e-06 M
same,Ki,"[2]; [3H]Vesamicol binding, PC12, experiment 2, read-out: expt 2 Ki (M) vs. rat VAChT (PC12)",8.47e-06 M
same,Ki,"[2]; [3H]Vesamicol binding, rat VAChT (PC12), mean of 2-3 experiments, read-out: mean Ki",6.68e-06 M
same,Ki,[2]; [6],6.68e-06 M
same,atypical locomotion (number of animals),[3]; 3.75uM,0 and 4 and 6 and 2
same,coiled (number of animals),[3]; 3.75uM,0
same,no phene (number of animals),[3]; 3.75uM,20 and 16 and 14 and 18
same,paralyzed (number of animals),[3]; 3.75uM,0
same,"any phene: mean % fraction of young adults exhibiting any phenotype (coiled, jerky-Unc or paralyzed)",[3]; 3.75uM,18.3333%
same,atypical locomotion (number of animals),[3]; 15uM,14 and 16 and 18 and 15 and 17
same,coiled (number of animals),[3]; 15uM,3 and 0 and 2 and 1
same,no phene (number of animals),[3]; 15uM,0 and 4 and 3
same,paralyzed (number of animals),[3]; 15uM,3 and 4 and 0
same,"any phene: mean % fraction of young adults exhibiting any phenotype (coiled, jerky-Unc or paralyzed)",[3]; 15uM,94.1667%
same,atypical locomotion (number of animals),[3]; 60uM,8 and 10 and 11 and 9 and 14 and 15
same,coiled (number of animals),[3]; 60uM,1 and 3 and 2 and 4
same,no phene (number of animals),[3]; 60uM,0 and 5 and 1
same,paralyzed (number of animals),[3]; 60uM,11 and 7 and 9 and 0
same,"any phene: mean % fraction of young adults exhibiting any phenotype (coiled, jerky-Unc or paralyzed)",[3]; 60uM,95%
same,EC50,[3],6.1 ± 2.1 µM
same,"% effect (motility), DIROIM L4",[4]; 10 µM,10%
same,"% effect (motility), DIROIM L4",[4]; 50 µM,0%
same,EC50,"[5]; Pristionchus pacificus, 1 h, read-out: P. pacificus motor disruption EC50",> 60 µM
same,mean % any phene,[5]; conc 3.75,0.8333%
same,rep 1 atypical locomotion,[5]; [7],0
same,rep 1 coiled,[5]; [7],0
same,rep 1 no phene,[5]; [7],20
same,rep 1 paralyzed,[5]; [7],0
same,rep 2 atypical locomotion,[5]; [7],1
same,rep 2 coiled,[5]; [7],0
same,rep 2 no phene,[5]; [7],19
same,rep 2 paralyzed,[5]; [7],0
same,rep 3 atypical locomotion,[5]; [7],0
same,rep 3 coiled,[5]; [7],0
same,rep 3 no phene,[5]; [7],20
same,rep 3 paralyzed,[5]; [7],0
same,mean % any phene,[5]; conc 15,1.667%
same,rep 1 atypical locomotion,[5]; [8],0
same,rep 1 coiled,[5]; [8],0
same,rep 1 no phene,[5]; [8],20
same,rep 1 paralyzed,[5]; [8],0
same,rep 2 atypical locomotion,[5]; [8],0
same,rep 2 coiled,[5]; [8],0
same,rep 2 no phene,[5]; [8],19 and 20
same,rep 3 atypical locomotion,[5]; [8],0
same,rep 3 coiled,[5]; [8],0
same,rep 3 no phene,[5]; [8],20 and 19
same,mean % any phene,[5]; conc 60,10.8333%
same,rep 1 atypical locomotion,[5]; [9],4 and 3
same,rep 1 no phene,[5]; [9],16
same,rep 1 paralyzed,[5]; [9],0
same,rep 2 atypical locomotion,[5]; [9],1 and 2
same,rep 2 coiled,[5]; [9],0
same,rep 2 no phene,[5]; [9],18
same,rep 3 coiled,[5]; [9],0
same,rep 3 no phene,[5]; [9],20 and 19
same,rep 3 paralyzed,[5]; [9],0
O=[N+]([O-])c1ccc(N2CCN(C3CCCCCC3)CC2)cc1 [Nemacol-19],"% effect (motility), DIROIM MF",[1]; 0.016 µM,0%
same,"% effect (motility), DIROIM MF",[1]; 0.08 µM,0%
same,"% effect (motility), DIROIM MF",[1]; 0.4 µM,0%
same,"% effect (motility), DIROIM MF",[1]; 2 µM,0%
same,"% effect (motility), DIROIM MF",[1]; 10 µM,40%
same,EC50,"[1]; Dirofilaria immitis, 72 h, read-out: Dirofilaria immitis filariae EC50",10.7 µM
same,Ki,[2]; [6],4.62e-07 M
same,"any phene (mean % fraction of young adults exhibiting any phenotype: coiled, jerky-Unc or paralyzed)","[3]; 3.75uM, third c14 line of each analog",43.3333%
same,"any phene (mean % fraction of young adults exhibiting any phenotype: coiled, jerky-Unc or paralyzed)","[3]; 15uM, second c14 line of each analog",97.5%
same,EC50,[3],4.1 ± 1.4 µM
same,"% effect (motility), DIROIM L4",[4]; 2 µM,0%
same,"% effect (motility), DIROIM L4",[4]; 10 µM,0%
same,"% effect (motility), DIROIM L4",[4]; 50 µM,100%
